# Assay results: patent publication US8476197B2, “Aminopropenoates as fungicides” (priority 2009, dated 2013)
# Marks after values point to notes of the source that are not given here.
# Conditions: pH 2.3
row,Log P,Structure (SMILES)
1,1.97,CC(C)C(C)NC(=C(C#N)C(N)=O)c1cccnc1Cl (centres unmarked) [Compound 993]
2,2.18,C#CCNC(=C(C#N)C(=O)OCC)c1cccnc1Cl [Compound 1044]
3,3.84,CCOC(=O)C(C#N)=C(NC1CCCCC1C)c1cccnc1Cl (centres unmarked) [Compound 1066]

# Same assay, conditions: pH 2.7
row,Log P,Structure (SMILES)
1,3.92^[a],CCOC(=O)C(C#N)=C(NC(C)C(C)C)c1ccnc(Cl)c1Cl (centres unmarked) [Compound 994]
2,3.93^[a],CCOC(=O)C(C#N)=C(NC(C)C(C)C)c1c(C(F)(F)F)nn(C)c1F (centres unmarked) [Compound 999]
3,2.59^[a],COCCNC(=O)C(C#N)=C(NC(C)C(C)C)c1cn(C)nc1C(F)F (centres unmarked) [Compound 1005]
4,3.13^[a],COC(=O)C(C#N)=C(NC1(C)CCCCC1)c1cccnc1Cl [Compound 1009]
5,3.04^[a],COC(=O)C(C#N)=C(NC(C)(C)C#N)c1sc(C)nc1C(F)(F)F [Compound 1010]
6,2.98^[a],CCOC(=O)C(C#N)=C(NC(C)(C)C#N)c1nc(Cl)ccc1Cl [Compound 1011]
7,4.19^[a],C=CCCCC(C=C)NC(=C(C#N)C(=O)OC)c1sc(C)nc1C(F)(F)F (centres unmarked) [Compound 1019]
8,3.81^[a],C=CCCCC(C=C)NC(=C(C#N)C(=O)OCC)c1conc1C (centres unmarked) [Compound 1020]
9,4.14^[a],C=CCCCC(C=C)NC(=C(C#N)C(=O)OCC)c1cn(C)nc1C(F)(F)F (centres unmarked) [Compound 1021]
10,4.49^[a],C=CCCCC(C=C)NC(=C(C#N)C(=O)OCC)c1sc(C)nc1C(F)(F)F (centres unmarked) [Compound 1022]
11,4.65^[a],C=CCCCC(C=C)NC(=C(C#N)C(=O)OCC)c1sccc1Cl (centres unmarked) [Compound 1023]
12,4.65^[a],C=CCCCC(C=C)NC(=C(C#N)C(=O)OCC)c1ccsc1I (centres unmarked) [Compound 1024]
13,2.98^[a],CCC#CC(C)(C)NC(=C(C#N)C(=O)OC)c1cccnc1Cl [Compound 1025]
14,3.42^[a],C#CC(C)(C)NC(=C(C#N)C(=O)OCC)c1sccc1Br [Compound 1027]
15,3.42^[a],C#CC(C)(C)NC(=C(C#N)C(=O)OCC)c1ccsc1Br [Compound 1029]
16,2.66^[a],C#CC(C)(C)NC(=C(C#N)C(=O)OCC)c1conc1C [Compound 1030]
17,3.02^[a],C#CC(C)(C)NC(=C(C#N)C(=O)OCC)c1cn(C)nc1C(F)(F)F [Compound 1031]
18,3.41^[a],C#CC(C)(C)NC(=C(C#N)C(=O)OCC)c1sccc1Cl [Compound 1032]
19,3.99^[a],C#CC(C)(C)NC(=C(C#N)C(=O)OCC)c1cc(Cl)sc1Cl [Compound 1033]
20,2.44^[a],C#CC(C)(C)NC(=C(C#N)C(=O)OCC)c1cn(C)nc1OC [Compound 1034]

row,Log P,Structure (SMILES)
1,2.54^[a],C#CC(C)(C)NC(=C(C#N)C(=O)OCC)c1cn(C)nc1C=C [Compound 1035]
2,3.61^[a],C#CC(C)(C)NC(=C(C#N)C(=O)OCC)c1sc(Cl)nc1Cl [Compound 1036]
3,2.57^[a],CC#CC(C)(C)NC(=C(C#N)C(=O)OC)c1cccnc1Cl [Compound 1039]
4,3.92^[a],CC#CC(C)(C)NC(=C(C#N)C(=O)OCC)c1sccc1C(F)(F)F [Compound 1040]
5,3.85^[a],CC#CC(C)(C)NC(=C(C#N)C(=O)OCC)c1sccc1Br [Compound 1041]
6,3.35^[a],CC#CC(C)(C)NC(=C(C#N)C(=O)OC)c1sc(C)nc1C(F)(F)F [Compound 1042]
7,2.9^[a],CC#CC(C)(C)NC(=C(C#N)C(=O)OCC)c1cn(C)nc1C(F)F [Compound 1043]
8,2.14^[a],C#CC(C)NC(=C(C#N)C(=O)OC)c1cccnc1Cl (centres unmarked) [Compound 1045]
9,3.25^[a],C#CC(C)NC(=C(C#N)C(=O)OCC)c1sccc1C(F)(F)F (centres unmarked) [Compound 1046]
10,3.17^[a],C#CC(C)NC(=C(C#N)C(=O)OCC)c1sccc1Br (centres unmarked) [Compound 1047]
11,2.73^[a],C#CC(C)NC(=C(C#N)C(=O)OC)c1sc(C)nc1C(F)(F)F (centres unmarked) [Compound 1048]
12,3.73^[a],COC(=O)C(C#N)=C(NC1CC(C)CCC1C)c1cccnc1Cl (centres unmarked) [Compound 1057]
13,3.63^[a],COC(=O)C(C#N)=C(NC1C(C)CCCC1C)c1cccnc1Cl (centres unmarked) [Compound 1058]
14,3.99^[a],CCC1CCCC(C)C1NC(=C(C#N)C(=O)OC)c1cccnc1Cl (centres unmarked) [Compound 1060]
15,3.63^[a],CCC1CCCCC1NC(=C(C#N)C(=O)OC)c1cccnc1Cl (centres unmarked) [Compound 1061]
16,2.99^[a],C#CC1CCCCC1NC(=C(C#N)C(=O)OC)c1cccnc1Cl (centres unmarked) [Compound 1063]
17,3.44^[a],CCOC(=O)C(C#N)=C(NC1CC1c1ccccc1)c1cccnc1Cl (centres unmarked) [Compound 1068]
18,3.09^[a],COC(=O)C(C#N)=C(NC1CCCC(C(F)(F)F)C1)c1cccnc1Cl (centres unmarked) [Compound 1069]
19,3.73^[a],COC(=O)C(C#N)=C(NC1CCC(C)C(C)C1)c1cccnc1Cl (centres unmarked) [Compound 1070]
20,3.42^[a],COC(=O)C(C#N)=C(NC1CC(C(F)(F)F)CC(C(F)(F)F)C1)c1cccnc1Cl (centres unmarked) [Compound 1071]

row,Structure (SMILES),Log P
1,CCOC(=O)C(C#N)=C(NC(C)C(C)C)c1ccncc1Br (centres unmarked) [Compound 996],3.33^[a]
2,CCOC(=O)C(C#N)=C(NC(C)C(C)C)c1ccncc1F (centres unmarked) [Compound 997],3.08^[a]
3,C=CCOC(=O)C(C#N)=C(NC(C)C(C)C)c1cn(C)nc1C(F)F (centres unmarked) [Compound 998],3.31^[a]
4,CCOC(=O)C(C#N)=C(NC(C)C(C)C)c1cn(C)nc1C(F)F (centres unmarked) [Compound 1003],3.15^[a]
5,CC(C)C(C)NC(=C(C#N)C(=O)NC1CC1)c1cn(C)nc1C(F)F (centres unmarked) [Compound 1006],2.66^[a]
6,C=CCNC(=O)C(C#N)=C(NC(C)C(C)C)c1cn(C)nc1C(F)F (centres unmarked) [Compound 1007],2.9^[a]
7,C=CCNC(=O)C(C#N)=C(NC(C)C(C)C)c1cn(C)nc1C(F)F (centres unmarked) [Compound 1008],2.68^[a]
8,C#CC(C)(C)NC(=C(C#N)C(=O)OCC)c1cn(C)cc1C(F)(F)F [Compound 1038],3.21^[a]
9,C#CC(C)NC(=C(C#N)C(=O)OCC)c1cn(C)nc1C(F)F (centres unmarked) [Compound 1049],2.44^[a]
10,C#CC(C)NC(=C(C#N)C(=O)OCC)c1sc(C)nc1C(F)(F)F (centres unmarked) [Compound 1050],3.06^[a]
11,CC#CC(C)NC(=C(C#N)C(=O)OC)c1cccnc1Cl (centres unmarked) [Compound 1051],2.5^[a]
12,CC#CC(C)NC(=C(C#N)C(=O)OCC)c1cccnc1Cl (centres unmarked) [Compound 1052],2.86^[a]
13,CCOC(=O)C(C#N)=C(NC1CC1C(F)(F)F)c1cccnc1Cl (centres unmarked) [Compound 1054],2.9^[a]
14,CCOC(=O)C(C#N)=C(NC1CC1(C)C)c1cccnc1Cl (centres unmarked) [Compound 1055],3.25^[a]
15,CCOC1CCCC1NC(=C(C#N)C(=O)OC)c1cccnc1Cl (centres unmarked) [Compound 1059],2.93^[a]
16,CCOC(=O)C(C#N)=C(NC1CC1CC)c1cccnc1Cl (centres unmarked) [Compound 1062],3.27^[a]
17,CCOC(=O)C(C#N)=C(NC1CCC1C)c1cccnc1Cl (centres unmarked) [Compound 1065],3.37^[a]
18,CCOC(=O)C(C#N)=C(NC1CC1C)c1cccnc1Cl (centres unmarked) [Compound 1067],2.86^[a]
19,CCOC(=O)C(C#N)=C(NC1CC(C)C1)c1cccnc1Cl (centres unmarked) [Compound 1073],3.3^[a]

# Same assay, conditions: pH 7.5
row,Log P,Structure (SMILES)
1,1.96,CC(C)C(C)NC(=C(C#N)C(N)=O)c1cccnc1Cl (centres unmarked) [Compound 993]
2,2.05,C#CCNC(=C(C#N)C(=O)OCC)c1cccnc1Cl [Compound 1044]
3,3.7,CCOC(=O)C(C#N)=C(NC1CCCCC1C)c1cccnc1Cl (centres unmarked) [Compound 1066]
